Results from patent US20060110456A1, “Method for biocidal and/or biostatic treatment and compositions therefor” (NATIONAL UNIVERSITY OF SINGAPORE, priority 2004, published 2006).

Tests used:
[1] = system: Balanus amphitrite cyprids; settings: reported value of commercially available biocide (Willemsen et al., 1998); cited from earlier work
[2] = system: marine bacteria (26 strains); assay: Disk inhibition assay; type: cell-based, marine bacteria isolated from Singapore fouling communities; settings: for zone of inhibition at 10 µg/disc: 10 μg per disc; for zone of inhibition at 25 µg/disc: 25 μg per disc; for zone of inhibition at 5 µg/disc: 5 μg per disc; for zone of inhibition at 30 µg/disc: 30 μg per disc
Description: Preparation of Drugs onto Disks for Assay
The non-antibiotic pharmaceuticals of Table 1 were prepared in the following way. A tablet with a known amount of active ingredient (as stated in the product information) was ground in a mortar and pestle and suspended in sterile deionized water to a concentration of 2 mg ml^−1. These samples were sonicated for at least 1 min. […] The two halves of the capsule were separated and the powder released straight into a bottle and suitable amount of water added to make a concentration of 2 mg ml^−1.
As a comparison to the pharmaceuticals, to determine the susceptibility of the bacterial isolates to conventional antibiotics, commercially available antibiotic discs were used. Antibiotic discs (Oxoid® CT series) containing Ampicillin [Amp] (2 and 10 μg), Erythromycin [Ery] (5 and 15 μg), Streptomycin [Str] (10 and 25 μg) and Tetracycline [Tet] (5 and 30 μg) were placed on lawns of the bacterial strains inoculated as described below.
Sterile swabs dipped into the cultures were used to inoculate Marine Agar plates with a bacterial lawn by smearing the culture over the surface. After inoculating the plates, discs with antibiotics, pharmaceuticals or control blanks were placed on each plate. Each concentration of antibiotic or pharmaceutical was tested with three replicates on three separate occasions. After the disks were placed on the agar surface, plates were incubated overnight in the dark at 30° C. After incubation, plates were examined for zones of inhibition or clearing around control and treated disks. The diameter of any zone of clearing or inhibition was measured using Vernier calipers.
The assay was repeated three times with three replicates for each concentration used, each time.

CCCCCCCCn1sc(Cl)c(Cl)c1=O [Sea Nine]
0.33 ppm: ED50 [1]

[H]/N=C(/N)N[C@H]1[C@H](O)[C@@H](O)[C@H](O[C@@H]2O[C@@H](C)[C@](O)(C=O)[C@H]2O[C@@H]2O[C@@H](CO)[C@H](O)[C@@H](O)[C@@H]2NC)[C@@H](N/C(N)=N\[H])[C@@H]1O [Str, streptomycin]
10 to 19 mm: zone of inhibition at 10 µg/disc ([2]; strain 1 (Rhodovulum)) | zone of inhibition at 10 µg/disc ([2]; strain 4 (Bacillus)) | zone of inhibition at 25 µg/disc ([2]; strain 4 (Bacillus)) | zone of inhibition at 25 µg/disc ([2]; strain 6 (Vibrio)) | zone of inhibition at 10 µg/disc ([2]; strain 7 (Vibrio)) | zone of inhibition at 25 µg/disc ([2]; strain 7 (Vibrio)) | zone of inhibition at 10 µg/disc ([2]; strain 8 (Bacillus)) | zone of inhibition at 25 µg/disc ([2]; strain 8 (Bacillus)) | zone of inhibition at 10 µg/disc ([2]; strain 9 (Bacillus)) | zone of inhibition at 25 µg/disc ([2]; strain 9 (Bacillus)) | zone of inhibition at 10 µg/disc ([2]; strain 10 (Halobacillus)) | zone of inhibition at 25 µg/disc ([2]; strain 10 (Halobacillus)) | zone of inhibition at 10 µg/disc ([2]; strain 11 (Pseudomonas)) | zone of inhibition at 25 µg/disc ([2]; strain 12 (Gordonia)) | zone of inhibition at 10 µg/disc ([2]; strain 13 (Bacillus)) | zone of inhibition at 25 µg/disc ([2]; strain 13 (Bacillus)) | zone of inhibition at 25 µg/disc ([2]; strain 16 (Pseudoalteromonas)) | zone of inhibition at 10 µg/disc ([2]; strain 17 (Gordonia)) | zone of inhibition at 25 µg/disc ([2]; strain 17 (Gordonia)) | zone of inhibition at 10 µg/disc ([2]; strain 18 (Microbacterium)) | zone of inhibition at 25 µg/disc ([2]; strain 18 (Microbacterium)) | zone of inhibition at 10 µg/disc ([2]; strain 21) | zone of inhibition at 25 µg/disc ([2]; strain 21) | zone of inhibition at 10 µg/disc ([2]; strain 28) | zone of inhibition at 25 µg/disc ([2]; strain 28) | zone of inhibition at 10 µg/disc ([2]; strain 29) | zone of inhibition at 25 µg/disc ([2]; strain 29) | zone of inhibition at 10 µg/disc ([2]; strain 30) | zone of inhibition at 25 µg/disc ([2]; strain 30)
6 to 9 mm: zone of inhibition at 25 µg/disc ([2]; strain 14 (Vibrio)) | zone of inhibition at 10 µg/disc ([2]; strain 16 (Pseudoalteromonas)) | zone of inhibition at 10 µg/disc ([2]; strain 22)
20 to 29 mm: zone of inhibition at 25 µg/disc ([2]; strain 1 (Rhodovulum)) | zone of inhibition at 25 µg/disc ([2]; strain 11 (Pseudomonas)) | zone of inhibition at 25 µg/disc ([2]; strain 22) | zone of inhibition at 25 µg/disc ([2]; strain 24) | zone of inhibition at 25 µg/disc ([2]; strain 26)
< 6 mm: zone of inhibition at 10 µg/disc ([2]; strain 2 (Erythrobacter)) | zone of inhibition at 25 µg/disc ([2]; strain 2 (Erythrobacter)) | zone of inhibition at 10 µg/disc ([2]; strain 3 (Erythrobacter)) | zone of inhibition at 25 µg/disc ([2]; strain 3 (Erythrobacter)) | zone of inhibition at 10 µg/disc ([2]; strain 6 (Vibrio)) | zone of inhibition at 10 µg/disc ([2]; strain 12 (Gordonia)) | zone of inhibition at 10 µg/disc ([2]; strain 14 (Vibrio)) | zone of inhibition at 10 µg/disc ([2]; strain 19 (Erythrobacter)) | zone of inhibition at 25 µg/disc ([2]; strain 19 (Erythrobacter)) | zone of inhibition at 10 µg/disc ([2]; strain 20) | zone of inhibition at 25 µg/disc ([2]; strain 20) | zone of inhibition at 10 µg/disc ([2]; strain 24) | zone of inhibition at 10 µg/disc ([2]; strain 26) | zone of inhibition at 10 µg/disc ([2]; strain 27) | zone of inhibition at 25 µg/disc ([2]; strain 27)

CN(C)[C@@H]1C(O)=C(C(N)=O)C(=O)[C@@]2(O)C(O)=C3C(=O)c4c(O)cccc4[C@@](C)(O)[C@H]3C[C@@H]12 [Tet, tetracycline]
< 6 mm: zone of inhibition at 5 µg/disc ([2]; strain 1 (Rhodovulum)) | zone of inhibition at 30 µg/disc ([2]; strain 1 (Rhodovulum)) | zone of inhibition at 5 µg/disc ([2]; strain 2 (Erythrobacter)) | zone of inhibition at 30 µg/disc ([2]; strain 2 (Erythrobacter)) | zone of inhibition at 5 µg/disc ([2]; strain 3 (Erythrobacter)) | zone of inhibition at 30 µg/disc ([2]; strain 3 (Erythrobacter)) | zone of inhibition at 5 µg/disc ([2]; strain 6 (Vibrio)) | zone of inhibition at 5 µg/disc ([2]; strain 7 (Vibrio)) | zone of inhibition at 5 µg/disc ([2]; strain 11 (Pseudomonas)) | zone of inhibition at 30 µg/disc ([2]; strain 11 (Pseudomonas)) | zone of inhibition at 5 µg/disc ([2]; strain 12 (Gordonia)) | zone of inhibition at 5 µg/disc ([2]; strain 14 (Vibrio)) | zone of inhibition at 5 µg/disc ([2]; strain 16 (Pseudoalteromonas)) | zone of inhibition at 30 µg/disc ([2]; strain 16 (Pseudoalteromonas)) | zone of inhibition at 5 µg/disc ([2]; strain 17 (Gordonia)) | zone of inhibition at 30 µg/disc ([2]; strain 17 (Gordonia)) | zone of inhibition at 5 µg/disc ([2]; strain 18 (Microbacterium)) | zone of inhibition at 5 µg/disc ([2]; strain 19 (Erythrobacter)) | zone of inhibition at 30 µg/disc ([2]; strain 19 (Erythrobacter)) | zone of inhibition at 5 µg/disc ([2]; strain 20) | zone of inhibition at 5 µg/disc ([2]; strain 21) | zone of inhibition at 5 µg/disc ([2]; strain 24) | zone of inhibition at 30 µg/disc ([2]; strain 24) | zone of inhibition at 5 µg/disc ([2]; strain 26) | zone of inhibition at 30 µg/disc ([2]; strain 26) | zone of inhibition at 5 µg/disc ([2]; strain 27) | zone of inhibition at 5 µg/disc ([2]; strain 28)
6 to 9 mm: zone of inhibition at 30 µg/disc ([2]; strain 6 (Vibrio)) | zone of inhibition at 30 µg/disc ([2]; strain 7 (Vibrio)) | zone of inhibition at 5 µg/disc ([2]; strain 8 (Bacillus)) | zone of inhibition at 5 µg/disc ([2]; strain 13 (Bacillus)) | zone of inhibition at 30 µg/disc ([2]; strain 18 (Microbacterium)) | zone of inhibition at 5 µg/disc ([2]; strain 22)
10 to 19 mm: zone of inhibition at 5 µg/disc ([2]; strain 4 (Bacillus)) | zone of inhibition at 30 µg/disc ([2]; strain 4 (Bacillus)) | zone of inhibition at 30 µg/disc ([2]; strain 8 (Bacillus)) | zone of inhibition at 5 µg/disc ([2]; strain 9 (Bacillus)) | zone of inhibition at 30 µg/disc ([2]; strain 9 (Bacillus)) | zone of inhibition at 30 µg/disc ([2]; strain 10 (Halobacillus)) | zone of inhibition at 30 µg/disc ([2]; strain 13 (Bacillus)) | zone of inhibition at 30 µg/disc ([2]; strain 14 (Vibrio)) | zone of inhibition at 30 µg/disc ([2]; strain 20) | zone of inhibition at 30 µg/disc ([2]; strain 21) | zone of inhibition at 30 µg/disc ([2]; strain 22) | zone of inhibition at 30 µg/disc ([2]; strain 27) | zone of inhibition at 30 µg/disc ([2]; strain 28) | zone of inhibition at 5 µg/disc ([2]; strain 29) | zone of inhibition at 5 µg/disc ([2]; strain 30) | zone of inhibition at 30 µg/disc ([2]; strain 30)
20 to 29 mm: zone of inhibition at 30 µg/disc ([2]; strain 29)
30 to 39 mm: zone of inhibition at 5 µg/disc ([2]; strain 10 (Halobacillus)) | zone of inhibition at 30 µg/disc ([2]; strain 12 (Gordonia))
